Measurements from patent US10696615B2, “Prenylated hydroxystilbenes” (The University of Sydney, priority 2011, dated 2020).

Experiments:
HCT-15 = assay: NCI in vitro cancer screen, Colon Cancer; format: cell-based, human; settings: HCT-15
HCC-2998 = assay: NCI in vitro cancer screen, Colon Cancer; format: cell-based, human; settings: HCC-2998
IGROV1 = assay: NCI in vitro cancer screen, Ovarian Cancer; format: cell-based, human; settings: IGROV1
HS 578T = assay: NCI in vitro cancer screen, Breast Cancer; format: cell-based, human; settings: Homo sapiens
CAKI-1 = assay: NCI in vitro cancer screen, Renal Cancer; format: cell-based, human; settings: CAKI-1
A498 = assay: NCI in vitro cancer screen, Renal Cancer; format: cell-based, human; settings: A498
RPMI-8226 = assay: NCI in vitro cancer screen, Leukemia; format: cell-based, human; settings: RPMI-8226
MALME-3M = assay: NCI in vitro cancer screen, Melanoma; format: cell-based, human
UACC-257 = assay: NCI in vitro cancer screen, Melanoma; format: cell-based, human; settings: UACC-257
MOLT-4 = assay: NCI in vitro cancer screen, Leukemia; format: cell-based, human; settings: MOLT-4
NCI-H522 = assay: NCI in vitro cancer screen, Non-Small Cell Lung Cancer; format: cell-based, human; settings: Homo sapiens, NCI-H522
SN12C = assay: NCI in vitro cancer screen, Renal Cancer; format: cell-based, human
HCT-116 = assay: NCI in vitro cancer screen, Colon Cancer; format: cell-based, human; settings: HCT-116
786-0 = assay: NCI in vitro cancer screen, Renal Cancer; format: cell-based, human; settings: 786-0
ADR-RES (NCI/ADR-RES) = assay: NCI in vitro cancer screen, Ovarian Cancer; format: cell-based, human; settings: Homo sapiens, NCI/ADR-RES
LOX IMVI = assay: NCI in vitro cancer screen, Melanoma; format: cell-based, human
HOP-62 = assay: NCI in vitro cancer screen, Non-Small Cell Lung Cancer; format: cell-based, human; settings: HOP-62
M14 = assay: NCI in vitro cancer screen, Melanoma; format: cell-based, human; settings: M14
HOP-92 = assay: NCI in vitro cancer screen, Non-Small Cell Lung Cancer; format: cell-based, human; settings: HOP-92
HL-60 (TB) = assay: NCI in vitro cancer screen, Leukemia; format: cell-based, human; settings: HL-60 (TB)
OVCAR-4 = assay: NCI in vitro cancer screen, Ovarian Cancer; format: cell-based, human; settings: OVCAR-4
SR = assay: NCI in vitro cancer screen, Leukemia; format: cell-based, human
NCI-H226 = assay: NCI in vitro cancer screen, Non-Small Cell Lung Cancer; format: cell-based, human; settings: NCI-H226
[1] = test system: MDA-MB-231 (MDA-MB-231/ATCC); assay: NCI in vitro cancer screen, Breast Cancer; format: cell-based, human; settings: MDA-MB-231
SF-268 = assay: NCI in vitro cancer screen, CNS Cancer; format: cell-based, human; settings: SF-268
EKVX = assay: NCI in vitro cancer screen, Non-Small Cell Lung Cancer; format: cell-based, human
COLO 205 = assay: NCI in vitro cancer screen, Colon Cancer; format: cell-based, human; settings: COLO 205
SF-539 = assay: NCI in vitro cancer screen, CNS Cancer; format: cell-based; settings: SF-539
[2] = Homo sapiens, read-out: LC50 (the source's name)
[3] = read-out: LC50 (the source's name)

## COc1cc(/C=C/c2cc(O)cc(OC)c2CC=C(C)C)ccc1O [USYDS1, (E)-2-(3-methyl-2-buten-1-yl)-4′,5-dihydroxy-3,3′-dimethoxystilbene]
HCT-15
  TGI: 16.1 µM
HCT-15; Homo sapiens
  GI50: 0.05 µM
HCT-15; [2]
  CC50: > 100 µM
HCC-2998
  TGI: 11.5 µM
HCC-2998; Homo sapiens
  GI50: 1.07 µM
HCC-2998; [2]
  CC50: 35.8 µM
IGROV1; Homo sapiens, IGROV-1
  GI50: 2.65 µM
IGROV1; Homo sapiens, IGROV-1, read-out: LC50 (the source's name)
  CC50: > 100 µM
IGROV1
  TGI: 27.9 µM
HS 578T
  GI50: 0.02 µM
HS 578T; [3]
  CC50: > 100 µM
CAKI-1
  TGI: 39.3 µM
CAKI-1; Homo sapiens
  GI50: 4.77 µM
CAKI-1; [2]
  CC50: > 100 µM
A498
  TGI: 8.45 µM
A498; Homo sapiens
  GI50: 1.84 µM
A498; [2]
  CC50: 32.2 µM
RPMI-8226; Homo sapiens
  GI50: 0.11 µM
RPMI-8226; [2]
  CC50: > 100 µM
RPMI-8226
  TGI: 14.8 µM
MALME-3M; Homo sapiens, Malme-3M
  GI50: 3.47 µM
MALME-3M; Homo sapiens, Malme-3M, read-out: LC50 (the source's name)
  CC50: 78.3 µM
MALME-3M; MALME-3M
  TGI: 25.8 µM
UACC-257; Homo sapiens
  GI50: 2.53 µM
UACC-257; [2]
  CC50: 45.4 µM
UACC-257
  TGI: 17.7 µM
MOLT-4; Homo sapiens
  GI50: 0.43 µM
MOLT-4; [2]
  CC50: 80.2 µM
MOLT-4
  TGI: 12.3 µM
NCI-H522
  GI50: 0.02 µM
NCI-H522; [3]
  CC50: 44.8 µM
SN12C
  TGI: 16.9 µM
SN12C; Homo sapiens
  GI50: 0.99 µM
SN12C; [2]
  CC50: 54.2 µM
HCT-116
  TGI: 11.1 µM
HCT-116; Homo sapiens
  GI50: 0.3 µM
  LC50 (concentration killing 50% of cells): 40.4 µM
786-0
  TGI: 14.0 µM
786-0; Homo sapiens
  GI50: 0.48 µM
  LC50 (50% net cell kill): > 100 µM
ADR-RES (NCI/ADR-RES)
  GI50: 0.03 µM
ADR-RES (NCI/ADR-RES); [3]
  CC50: 70.7 µM
LOX IMVI
  TGI: 16.2 µM
LOX IMVI; Homo sapiens
  GI50: 0.05 µM
LOX IMVI; [2]
  CC50: 58.8 µM
HOP-62
  TGI: 16.0 µM
HOP-62; Homo sapiens
  GI50: 0.44 µM
HOP-62; [2]
  CC50: 42.2 µM
M14; Homo sapiens
  GI50: 0.04 µM
M14; [2]
  CC50: 44 µM
M14
  TGI: 13.9 µM
HOP-92
  TGI: 12.3 µM
HOP-92; Homo sapiens
  GI50: 0.06 µM
HOP-92; [2]
  CC50: 39.6 µM
HL-60 (TB)
  TGI: 0.06 µM
HL-60 (TB); Homo sapiens
  GI50: 0.02 µM
HL-60 (TB); [2]
  CC50: 68.9 µM
OVCAR-4; Homo sapiens
  GI50: 0.58 µM
OVCAR-4; [2]
  CC50: 52 µM
OVCAR-4
  TGI: 18.4 µM
SR
  TGI: 24.4 µM
SR; Homo sapiens
  GI50: 0.04 µM
SR; [2]
  CC50: > 100 µM
NCI-H226; Homo sapiens
  GI50: 3.13 µM
  LC50 (50% lethal concentration): 45.6 µM
NCI-H226
  TGI: 13.3 µM
[1]; Homo sapiens
  GI50: 0.15 µM
[1]; [2]
  CC50: 61.2 µM
[1]
  TGI: 2.43 µM
SF-268; Homo sapiens
  GI50: 0.25 µM
SF-268; [2]
  CC50: 50.2 µM
SF-268
  TGI: 14.1 µM
EKVX
  TGI: 24.3 µM
EKVX; Homo sapiens
  GI50: 10.8 µM
EKVX; [2]
  CC50: 54.4 µM
COLO 205
  TGI: 16.1 µM
COLO 205; Homo sapiens
  GI50: 3.86 µM
COLO 205; [2]
  CC50: 42.6 µM
SF-539; Homo sapiens
  GI50: 0.04 µM
SF-539; [2]
  CC50: 48.6 µM
SF-539
  TGI: 14.4 µM
